# Results reported in ChEMBL document CHEMBL1131691, “Design and synthesis of simplified sordaricin derivatives as inhibitors of fungal protein synthesis” (Bioorg Med Chem Lett, 1999).
# What was measured:
# Candida albicans [1] = assay: Inhibitory concentration against Candida albicans 2005E protein synthesis; type: functional, organism-based
# Candida albicans [2] = assay: Minimum inhibitory concentration Candida albicans 2005E cell growth; type: functional
structure (smiles),measurement,setting,value
CC(C)C1=CC2C[C@]3(C=O)C4CCC(C)C4C[C@]2(CO)[C@]13C(=O)O (some centres not stated) [SORDARICIN],IC50,Candida albicans [1],500 nM
same,MIC,Candida albicans [2],> 376 µM
